Data on 5 molecules can be found in patent US20230277698A1, “SILICON-CONTAINING LIGAND COMPOUNDS” (Technische Universität München, priority 2020, published 2023).

In series [1] the test system is LNCaP tumor-bearing CB17-SCID mice. Description: Biodistribution studies 24 h p.i. In kind it is in vivo. The settings on record: 177Lu-labelled, mean±SD, n=4-5; for biodistribution: tumor: LNCaP xenograft; for biodistribution: blood: i.v. tail vein. The protocol:
All animal experiments were conducted in accordance with general animal welfare regulations in Germany (German animal protection act, as amended on 18 May 2018, Art. 141 G v. 29.3.2017|626, approval no. 55.2-1-54-2532-71-13) and the institutional guidelines for the care and use of animals. To establish tumor xenografts, LNCaP cells (approx. 10^7 cells) were suspended in 200 μL of a 1:1 mixture (v/v) of DMEM F-12 and Matrigel (BD Biosciences, Germany), and inoculated subcutaneously onto the right shoulder of 6-8 weeks old CB17-SCID mice (Charles River, Sulzfeld, Germany). Mice were used for experiments when tumors had grown to a diameter of 5-10 mm (3-6 weeks after inoculation).
Approximately 5-10 MBq (0.1-0.2 nmol) of the radioactive-labelled PSMA inhibitors were injected into the tail vein of LNCaP tumor-bearing male CB-17 SCID mice and sacrificed after 24 h post injection. Selected organs were removed, weighted and measured in a γ-counter.
FIG. 10 and the following table show the biodistribution data 24 h p.i. of ^177Lu-labeled compounds in LNCaP tumor-bearing CB17-SCID mice. Data are expressed as mean±SD (n=4-5).

In another series the test system is LNCaP cells. The series is described as follows: Internalization studies on LNCaP cells. It counts as cell-based. The settings on record: 177Lu-labelled, c=1.0 nM, 1 hour, 37 °C; % of reference ligand ([125I]I-BA)KuE (c=0.2 nM); corrected for non-specific binding (PMPA); mean±SD, n=3-6. Here is the method:
(§1) PSMA-positive LNCAP cells (300265; Cell Lines Service, Eppelheim, Germany) were cultivated in Dulbecco modified Eagle medium/Nutrition Mixture F-12 with Glutamax (1:1) (DMEM-F12, Biochrom, Berlin, Germany) supplemented with fetal bovine serum (10%, FBS Zellkultur, Berlin, Germany) and kept at 37° C. in a humidified CO2 atmosphere (5%). A mixture of trypsin and EDTA (0.05%, 0.02%) in PBS (Biochrom) was used in order to harvest cells. Cells were counted with a Neubauer hemocytometer (Paul Marienfeld, Lauda-Königshofen, Germany).
For internalization studies, LNCaP cells were harvested 24±2 hours before the experiment and seeded in poly-L-lysine coated 24-well plates (1.25×10^5 cells in 1 mL/well, Greiner Bio-One, Kremsmünster, Austria). After removal of the culture medium, the cells were washed once with 500 μL DMEM-F12 (5% BSA) and left to equilibrate for at least 15 min at 37° C. in 200 μL DMEM-F12 (5% BSA). Each well was treated with either 25 μL of either DMEM-F12 (5% BSA, control) or 25 μL of a 100 μM PMPA (2-(Phosphonomethyl)-pentandioic acid, Tocris Bioscience, Bristol, UK) solution in PBS, for blockade. Next, 25 μL of the radioactive-labelled PSMA inhibitor (10.0 nM in PBS) was added and the cells were incubated at 37° C. for 60 min. The experiment was terminated by placing the 24-well plate on ice for 3 min and consecutive removal of the medium. Each well was carefully washed with 250 μL of ice-cold HBSS. Both fractions from the first steps, representing the amount of free radioligand, were combined. Removal of surface bound activity was accomplished by incubation of the cells with 250 μL of ice-cold PMPA (10 μM in PBS) solution for 5 min and rinsed again with another 250 μL of ice-cold PBS. The internalized activity was determined by incubation of the cells in 250 μL 1 M aqueous NaOH for at least 10 min. The obtained fractions were combined with those of the subsequent wash step with 250 μL 1 M aqueous NaOH. Each experiment (control and blockade) was performed in triplicate. Free, surface bound and internalized activity was quantified in a γ-counter. All internalization studies were accompanied by external reference studies, using ([^125I]l-BA)KuE (c=0.2 nM), which were performed analogously. Data were corrected for non-specific binding and normalized to the specific-internalization observed for the radioiodinated reference compound.
Data is corrected for non-specific binding (10 μmol PMPA) and expressed as mean±SD (n=3-6): […]

For the next series, the target named is T1, PSMA (Homo sapiens, UniProt Q04609).
T1 construct: PSMA-positive LNCAP cells (300265; Cell Lines Service, Eppelheim, Germany); host or cells: LNCaP cells
T1 sequence (Q04609 whole entry): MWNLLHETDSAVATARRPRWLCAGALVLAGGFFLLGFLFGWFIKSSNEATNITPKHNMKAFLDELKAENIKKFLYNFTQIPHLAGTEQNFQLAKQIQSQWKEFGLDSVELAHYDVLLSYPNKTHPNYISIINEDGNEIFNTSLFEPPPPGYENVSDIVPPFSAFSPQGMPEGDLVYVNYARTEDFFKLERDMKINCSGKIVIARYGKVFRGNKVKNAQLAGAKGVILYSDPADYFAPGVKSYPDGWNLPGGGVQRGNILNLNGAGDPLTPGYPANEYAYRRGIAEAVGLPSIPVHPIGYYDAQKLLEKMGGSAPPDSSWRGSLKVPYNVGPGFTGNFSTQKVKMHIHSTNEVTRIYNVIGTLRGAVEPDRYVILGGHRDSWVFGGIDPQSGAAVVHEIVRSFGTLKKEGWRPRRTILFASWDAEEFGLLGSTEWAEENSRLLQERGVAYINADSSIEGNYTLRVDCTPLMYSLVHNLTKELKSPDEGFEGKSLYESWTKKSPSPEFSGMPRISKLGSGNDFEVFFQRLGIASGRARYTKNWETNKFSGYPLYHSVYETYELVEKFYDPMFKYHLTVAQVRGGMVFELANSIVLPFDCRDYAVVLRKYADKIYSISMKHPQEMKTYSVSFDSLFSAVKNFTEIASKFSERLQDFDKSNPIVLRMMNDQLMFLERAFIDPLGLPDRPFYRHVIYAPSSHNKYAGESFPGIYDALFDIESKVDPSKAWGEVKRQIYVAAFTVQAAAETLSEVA
Description: PSMA affinity (IC50), competition with ([125I]I-BA)KuE on LNCaP cells. The settings on record: natLu complexes; LNCaP cells 150000 cells/well, ([125I]I-BA)KuE c=0.2 nM, 1 h, 4 °C, HBSS+1% BSA; mean±SD, n=3; read-out: IC50 (binding affinity to PSMA). Here is the method: as §1
In the case of metal-complexed ligands, the crude reaction mixture was diluted analogously, without further purification. Cells were harvested 24±2 hours prior to the experiment and seeded in 24-well plates (1.5×10^5 cells in 1 mL/well). After removal of the culture medium, the cells were carefully washed with 500 μL of HBSS, supplemented with 1% bovine serum albumin (BSA, Biowest, Nuaillé, France) and left 15 min on ice for equilibration in 200 μL HBSS (1% BSA). Next, 25 μL per well of solutions, containing either HBSS (1% BSA, control) or the respective ligand in increasing concentration ([…] in HBSS) were added with subsequent addition of 25 μL of [^125I]-BA-KuE (2.0 nM) in HBSS (1% BSA). After incubation on ice for 60 min, the experiment was terminated by removal of the medium and consecutive rinsing with 200 μL of HBSS (1% BSA). The media of both steps were combined in one fraction and represent the amount of free radioligand. Afterwards, the cells were lysed with 250 μL of 1 M aqueous NaOH for at least 10 min. After a washing step (250 μL of 1 M NaOH), both fractions, representing the amount of bound ligand, were united. Quantification of all collected fractions was accomplished in a γ-counter. PSMA-affinity determinations were carried out at least three times per ligand.
Affinities were determined using LNCaP cells (150000 cells/well) and ([^125I]I-BA)KuE (c=0.2 nM) as the radioligand (1 h, 4° C., HBSS+1% BSA). Data are expressed as mean±SD (n=3).

The term IC50 denotes the concentration that gives 50% inhibition. Regarding `CC(C)(C)[Si](O)(c1ccc(C(=O)NC[C@@H](NC(=O)CC[C@@H](C(=O)O)N2CCN(CC(=O)O)CCN(CC(=O)O)CCN(CC(=O)O)CC2)C(=O)N[C@H](CCCCNC(=O)CCC(=O)NCCC[C@@H](NC(=O)CC[C@H](NC(=O)N[C@@H](CCC(=O)O)C(=O)O)C(=O)O)C(=O)O)C(=O)O)cc1)C(C)(C)C` [7.3-SiOH], in series [1], the “biodistribution: tumor” value is on record as 7.3 ± 0.8 % ID/g, the “biodistribution: blood” value is on record as 0.002 ± 0.001 % ID/g, the “biodistribution: bone” value was 0.01 ± 0.01 % ID/g and the “biodistribution: heart” value stood at 0.01 ± 0.01 % ID/g. In series [1], the “biodistribution: intestine” value amounted to 0.45 ± 0.39 % ID/g, the “biodistribution: kidneys” value was 3.7 ± 1.9 % ID/g, the “biodistribution: liver” value is on record as 0.08 ± 0.03 % ID/g and the “biodistribution: lung” value stood at 0.03 ± 0.01 % ID/g. In series [1], the “biodistribution: muscle” value came out at 0.006 ± 0.005 % ID/g, the “biodistribution: pancreas” value was 0.01 ± 0.01 % ID/g, the “biodistribution: spleen” value was 0.21 ± 0.11 % ID/g and the “biodistribution: stomach” value is 0.24 ± 0.36 % ID/g. The “Internalization (% IBA)” value in the series with LNCaP cells stood at 225 ± 23 % IBA. The IC50 on PSMA was found to be 5.9 ± 1.4 nM.
Take `CC(C)(C)[Si](O)(c1ccc(C(=O)NC[C@@H](NC(=O)CC[C@@H](C(=O)O)N2CCN(CC(=O)O)CCN(CC(=O)O)CCN(CC(=O)O)CC2)C(=O)N[C@H](CO)C(=O)NCCC(=O)NCCC(=O)NCCC[C@@H](NC(=O)CC[C@H](NC(=O)N[C@@H](CCC(=O)O)C(=O)O)C(=O)O)C(=O)O)cc1)C(C)(C)C` [C007-SiOH]: in series [1], the “biodistribution: tumor” value was found to be 5.4 ± 0.8 % ID/g, the “biodistribution: blood” value is recorded as 0.003 ± 0.001 % ID/g, the “biodistribution: adrenals” value is 0.20 ± 0.01 % ID/g and the “biodistribution: bone” value is 0.02 ± 0.01 % ID/g. In addition, in series [1], the “biodistribution: heart” value was found to be 0.02 ± 0.01 % ID/g, the “biodistribution: intestine” value came to 0.13 ± 0.08 % ID/g, the “biodistribution: kidneys” value was found to be 3.5 ± 1.4 % ID/g and the “biodistribution: liver” value was 0.40 ± 0.13 % ID/g. In addition, in series [1], the “biodistribution: lung” value turned out to be 0.04 ± 0.01 % ID/g, the “biodistribution: muscle” value amounted to 0.004 ± 0.001 % ID/g, the “biodistribution: pancreas” value came to 0.01 ± 0.01 % ID/g and the “biodistribution: parotis” value came to 0.06 ± 0.03 % ID/g. For the same molecule, in series [1], the “biodistribution: spleen” value is 0.40 ± 0.10 % ID/g, the “biodistribution: stomach” value was found to be 0.04 ± 0.01 % ID/g and the “biodistribution: submandibularis” value worked out at 0.03 ± 0.01 % ID/g. Moreover, in the series with LNCaP cells, the “Internalization (% IBA)” value turned out to be 185 ± 15 % IBA. The IC50 at PSMA was 7.1 ± 0.9 nM.
For `CC(C)(C)[Si](O)(c1ccc(C(=O)NC[C@@H](NC(=O)CC[C@@H](C(=O)O)N2CCN(CC(=O)O)CCN(CC(=O)O)CCN(CC(=O)O)CC2)C(=O)NCC(=O)N[C@@H](CCCCNC(=O)CCC(=O)NCCC[C@@H](NC(=O)CC[C@H](NC(=O)N[C@@H](CCC(=O)O)C(=O)O)C(=O)O)C(=O)O)C(=O)O)cc1)C(C)(C)C` [E102-SiOH], in series [1], the “biodistribution: tumor” value was determined as 4.4 ± 0.6 % ID/g, the “biodistribution: blood” value was 0.002 ± 0.001 % ID/g, the “biodistribution: adrenals” value came to 0.05 ± 0.03 % ID/g and the “biodistribution: bone” value is reported as 0.03 ± 0.01 % ID/g. Moreover, in series [1], the “biodistribution: heart” value is 0.02 ± 0.02 % ID/g, the “biodistribution: intestine” value turned out to be 0.43 ± 0.31 % ID/g, the “biodistribution: kidneys” value is 3.3 ± 2.9 % ID/g and the “biodistribution: liver” value was 0.05 ± 0.02 % ID/g. For the same molecule, in series [1], the “biodistribution: lung” value turned out to be 0.04 ± 0.02 % ID/g, the “biodistribution: muscle” value was 0.001 ± 0.001 % ID/g, the “biodistribution: pancreas” value is reported as 0.01 ± 0.01 % ID/g and the “biodistribution: parotis” value is 0.02 ± 0.01 % ID/g. Further, in series [1], the “biodistribution: spleen” value stood at 0.13 ± 0.10 % ID/g, the “biodistribution: stomach” value is 0.08 ± 0.07 % ID/g and the “biodistribution: submandibularis” value is 0.01 ± 0.01 % ID/g. For the same molecule, the “Internalization (% IBA)” value in the series with LNCaP cells worked out at 203 ± 15 % IBA. Also, the IC50 at PSMA is 8.4 ± 2.4 nM.
For the molecule `CC(C)(C)[Si](O)(c1ccc(C(=O)NC[C@@H](NC(=O)CCCCCNC(=O)CCCNC(=O)CC[C@@H](NC(=O)CCC(NC(=O)N[C@@H](CCC(=O)O)C(=O)O)C(=O)O)C(=O)O)C(=O)NCC(=O)N[C@@H](CCCCNC(=O)CC[C@@H](C(=O)O)N2CCN(CC(=O)O)CCN(CC(=O)O)CCN(CC(=O)O)CC2)C(=O)O)cc1)C(C)(C)C` (stereo partly shown) [E104-SiOH], the “Internalization (% IBA)” value with LNCaP cells is 103 ± 2 % IBA. For the same molecule, at PSMA, the IC50 was 9 ± 2.2 nM.
For `CC(C)(C)[Si](O)(c1ccc(C[N+](C)(C)CC(=O)NCCC[C@@H](NC(=O)CC[C@@H](C(=O)O)N2CCN(CC(=O)O)CCN(CC(=O)O)CCN(CC(=O)O)CC2)C(=O)NCCCCCC(=O)NCCC[C@@H](NC(=O)CC[C@H](NC(=O)N[C@@H](CCC(=O)O)C(=O)O)C(=O)O)C(=O)O)cc1)C(C)(C)C` [P110-SiOH] the same measures were 46 ± 2 % IBA and 42.2 ± 6.2 nM.
